As a reminder, the EC50 is the concentration needed to bring the measured effect to its halfway point.

Drawing on patent US9233964B2, “Sulfamide piperazine derivatives as protein tyrosine kinase inhibitors and pharmaceutical use therof” (LEO PHARMA A/S, priority 2011, dated 2016), this text covers EC50 for ten compounds.

Holding throughout (type): biochemical
For one assay, the target named is T1, JAK1 (Homo sapiens, UniProt P23458).
T1 construct: JAK1 (aa 850-1154) and TYK2 (aa 871-1187) are expressed with an N-terminally fused GST-tag; GST (N); purchased Carna Biosciences, Inc; host or cells: baculovirus expression system
Kind of assay: JAK kinase assay (HTRF, phosphorylation of synthetic peptide), JAK1. The note with it: catalytic domain, ATP at Km (7 μM); read-out: JAK1 kinase inhibitory activity (EC50). The method, boiled down: (§1)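 Catalytic-domain human JAK1 (GST-tagged, aa 850-1154) or His-tagged JAK2, baculovirus-expressed, phosphorylated 1 µM biotinylated TK peptide at Km ATP (JAK1 7 µM, 10 mM MgCl2, 50 nM SEB; JAK2 4 µM, 5 mM MgCl2) in pH 7.0 Hepes, 20-30 min RT. EDTA stop; overnight streptavidin-XL665/cryptate HTRF read.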
For orientation: Time-resolved FRET reads energy transfer from a long-lived donor to a nearby acceptor.

A further assay has as its target T2, JAK2 (Homo sapiens, UniProt O60674).
T2 construct: All four purified enzymes contain only the catalytic domain; His (N); purchased Carna Biosciences, Inc; host or cells: baculovirus expression system
Kind of assay: JAK kinase assay (HTRF, phosphorylation of synthetic peptide), JAK2. The note with it: catalytic domain, ATP at Km (4 μM); read-out: JAK2 kinase inhibitory activity (EC50). The essentials:
as §1

The next assay has as its target T3, JAK3 (Homo sapiens, UniProt P52333).
T3 construct: All four purified enzymes contain only the catalytic domain; His (N); purchased Carna Biosciences, Inc; host or cells: baculovirus expression system
Kind of assay: JAK kinase assay (HTRF, phosphorylation of synthetic peptide), JAK3. The note with it: catalytic domain, ATP at Km (2 μM); read-out: JAK3 kinase inhibitory activity (EC50).

For another assay, the target named is T4, TYK2 (Homo sapiens, UniProt P29597).
T4 construct: JAK1 (aa 850-1154) and TYK2 (aa 871-1187) are expressed with an N-terminally fused GST-tag; GST (N); purchased Carna Biosciences, Inc; host or cells: baculovirus expression system
T4 sequence (P29597 871-1187): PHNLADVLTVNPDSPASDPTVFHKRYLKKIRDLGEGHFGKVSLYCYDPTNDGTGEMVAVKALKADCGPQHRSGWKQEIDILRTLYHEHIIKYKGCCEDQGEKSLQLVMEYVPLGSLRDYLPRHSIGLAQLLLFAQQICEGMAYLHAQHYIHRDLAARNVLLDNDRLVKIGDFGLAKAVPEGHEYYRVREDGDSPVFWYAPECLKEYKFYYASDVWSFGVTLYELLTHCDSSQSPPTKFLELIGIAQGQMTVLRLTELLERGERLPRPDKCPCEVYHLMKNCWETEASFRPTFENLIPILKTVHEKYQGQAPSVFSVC
The assay is described as follows: JAK kinase assay (HTRF, phosphorylation of synthetic peptide), TYK2. The note with it: catalytic domain, ATP at Km (13 μM); read-out: TYK2 kinase inhibitory activity (EC50). The essentials: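 1 µM biotinylated TK peptide at Km ATP in pH 7.0 Hepes, 20-30 min RT. EDTA stop; overnight streptavidin-XL665/cryptate HTRF read.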

T2 sequence (O60674 849-1124 limits assumed): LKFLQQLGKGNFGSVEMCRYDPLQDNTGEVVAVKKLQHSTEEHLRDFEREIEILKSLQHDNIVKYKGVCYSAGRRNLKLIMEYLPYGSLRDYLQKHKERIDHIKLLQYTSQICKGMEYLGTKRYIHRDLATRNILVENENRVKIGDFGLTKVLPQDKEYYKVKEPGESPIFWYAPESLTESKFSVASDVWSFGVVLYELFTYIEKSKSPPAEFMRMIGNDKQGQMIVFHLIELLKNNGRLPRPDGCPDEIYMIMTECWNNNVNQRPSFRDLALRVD
T1 sequence (P23458 850-1154): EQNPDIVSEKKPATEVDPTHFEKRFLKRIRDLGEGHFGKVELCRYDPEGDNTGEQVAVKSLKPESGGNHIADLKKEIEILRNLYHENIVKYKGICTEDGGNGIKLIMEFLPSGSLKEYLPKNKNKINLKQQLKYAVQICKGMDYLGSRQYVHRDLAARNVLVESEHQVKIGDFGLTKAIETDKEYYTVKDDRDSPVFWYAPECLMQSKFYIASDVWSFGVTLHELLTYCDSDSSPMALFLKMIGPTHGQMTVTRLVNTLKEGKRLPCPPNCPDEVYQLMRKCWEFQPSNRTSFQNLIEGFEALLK
T3 sequence (P52333 822-1111 limits assumed): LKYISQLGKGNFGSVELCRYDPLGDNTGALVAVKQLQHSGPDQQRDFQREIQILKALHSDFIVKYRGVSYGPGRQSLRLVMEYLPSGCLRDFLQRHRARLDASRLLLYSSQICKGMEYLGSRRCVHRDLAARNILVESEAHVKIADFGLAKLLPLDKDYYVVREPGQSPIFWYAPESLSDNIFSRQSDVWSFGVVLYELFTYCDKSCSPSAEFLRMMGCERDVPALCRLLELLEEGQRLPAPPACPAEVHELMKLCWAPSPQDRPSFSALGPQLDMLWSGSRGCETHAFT

For the compound `CN(C[C@@H]1CCCN1C=O)S(=O)(=O)N1CCN(c2ncnc3[nH]ccc23)CC12CC2` [Example 191, N-[[(2S)-1-formylpyrrolidin-2-yl]methyl]-N-methyl-5-(7H-pyrrolo[2,3-d]pyrimidin-4-yl)-5,8-diazaspiro[2.5]octane-8-sulfonamide], the EC50 on JAK1 is less than 100 nM; at JAK2, less than 100 nM; on JAK3 it was less than 100 nM; on TYK2, 100 to 500 nM.

Take `CN(CC1CCN(S(C)(=O)=O)C1)S(=O)(=O)N1CCN(c2ncnc3[nH]ccc23)CC12CC2` (stereo not shown) [Example 119, N-methyl-N-[(1-methylsulfonylpyrrolidin-3-yl)methyl]-5-(7H-pyrrolo[2,3-d]pyrimidin-4-yl)-5,8-diazaspiro[2.5]octane-8-sulfonamide]: the EC50 was less than 100 nM on JAK1, less than 100 nM at JAK2, less than 100 nM at JAK3 and 100 to 500 nM at TYK2.

On to `CN(Cc1cccc(C#N)c1)S(=O)(=O)N1CCN(c2ncnc3[nH]ccc23)CC12CC2` [Example 13, 7-(7H-Pyrrolo[2,3-d]pyrimidin-4-yl)-4,7-diaza-spiro[2.5]octane-4-sulfonic acid (3-cyano-benzyl)-methyl-amide], for which the EC50 at JAK1 was less than 100 nM; on JAK2, less than 100 nM; on JAK3, less than 100 nM; on TYK2, 100 to 500 nM.

Consider `COc1ccc(/C=N\S(=O)(=O)N2CCN(c3ncnc4[nH]ccc34)CC23CC3)cc1` [Int 49], for which the EC50 on JAK1 is less than 100 nM; at JAK2, less than 100 nM; at JAK3, less than 100 nM; on TYK2 it was 100 to 500 nM.

As to `CN(CC12C3C4C1C1C2C3C41C#N)S(=O)(=O)N1CCN(c2ncnc3[nH]ccc23)CC12CC2` (stereo not shown) [Example 177, N-[(4-cyanocuban-1-yl)methyl]-N-methyl-5-(7H-pyrrolo[2,3-d]pyrimidin-4-yl)-5,8-diazaspiro[2.5]octane-8-sulfonamide], the half-maximal effective concentration (EC50) on JAK1, on JAK2, on JAK3 and at TYK2 was less than 100 nM each time.

Consider `CN(C1CN(S(C)(=O)=O)C1)S(=O)(=O)N1CCN(c2ncnc3[nH]ccc23)CC12CC2` [Example 180, N-methyl-N-(1-methylsulfonylazetidin-3-yl)-5-(7H-pyrrolo[2,3-d]pyrimidin-4-yl)-5,8-diazaspiro[2.5]octane-8-sulfonamide], for which the EC50 at JAK1, on JAK2, on JAK3 and on TYK2 was less than 100 nM each time.

Take `CC(O)CC(=O)N1CCC(CN(C)S(=O)(=O)N2CCN(c3ncnc4[nH]ccc34)CC23CC3)C1` (stereo not shown) [Example 124, N-[[1-(3-hydroxybutanoyl)pyrrolidin-3-yl]methyl]-N-methyl-5-(7H-pyrrolo[2,3-d]pyrimidin-4-yl)-5,8-diazaspiro[2.5]octane-8-sulfonamide]: the EC50 on JAK1 is less than 100 nM; on JAK2 it was less than 100 nM; on JAK3, 100 to 500 nM; at TYK2 it was more than 500 nM.

On to `CN(C(=O)C1CCCC1)S(=O)(=O)N1CCN(c2ncnc3[nH]ccc23)CC12CC2` [Example 132, N-methyl-N-[[5-(7H-pyrrolo[2,3-d]pyrimidin-4-yl)-5,8-diazaspiro[2.5]octan-8-yl]sulfonyl]cyclopentanecarboxamide], for which the EC50 on JAK1 is less than 100 nM; at JAK2, less than 100 nM; at JAK3 it was 100 to 500 nM; on TYK2, 100 to 500 nM.

As for `CN(CC1CCN(S(C)(=O)=O)CC1)S(=O)(=O)N1CCN(c2ncnc3[nH]ccc23)CC12CC2` [Example 158, N-methyl-N-[(1-methylsulfonyl-4-piperidyl)methyl]-5-(7H-pyrrolo[2,3-d]pyrimidin-4-yl)-5,8-diazaspiro[2.5]octane-8-sulfonamide], the EC50 is less than 100 nM on JAK1, less than 100 nM on JAK2, less than 100 nM at JAK3 and 100 to 500 nM on TYK2.

`CN(CC1CC(F)(F)CN1)S(=O)(=O)N1CCN(c2ncnc3[nH]ccc23)CC12CC2` (stereo not shown) [Int 28]: the EC50 on JAK1, on JAK2, on JAK3 and at TYK2 was less than 100 nM each time.
